Patent US10183950B2, “Thienopyrimidine inhibitors of atypical protein kinase C” (Cancer Research Technology Limited, priority 2011, dated 2019)

target: T1, kinase-domain human PKCι (Homo sapiens, UniProt P41743); experiment: PKCι IC50 IMAP fluorescence polarisation assay, kinase-domain enzyme; type: biochemical; conditions: kinase domain PKCi at 2 μM ATP; read-out: IC50 in IMAP assay against kinase domain PKCi
T1 construct: Recombinant, kinase-domain human PKCι is expressed and purified in-house; made in house
T1 sequence (P41743 254-522 limits assumed): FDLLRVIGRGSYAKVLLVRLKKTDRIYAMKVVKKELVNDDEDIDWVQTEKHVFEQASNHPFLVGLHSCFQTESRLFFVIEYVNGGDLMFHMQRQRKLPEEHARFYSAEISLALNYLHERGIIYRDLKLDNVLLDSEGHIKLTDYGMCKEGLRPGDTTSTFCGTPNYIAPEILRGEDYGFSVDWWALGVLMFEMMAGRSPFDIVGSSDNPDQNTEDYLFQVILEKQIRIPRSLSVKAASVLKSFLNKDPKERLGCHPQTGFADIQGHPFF

Cc1csc2c(N(C)CCN)nc(-c3ccncc3)nc12 [compound 365, N*1*-Methyl-N*1*-(7-methyl-2-pyridin-4-yl-thieno[3,2-d]pyrimidin-4-yl)-ethane-1,2-diamine] was tested. Which IC50 did it give?
The IC50 was 1 to 10 µM.

N[C@@H](COc1nc(-c2ccncc2)nc2c1sc1cccc(Cl)c12)Cc1ccccc1 [compound 477, (R)-1-(9-Chloro-2-pyridin-4-yl-benzo[4,5]thieno[3,2-d]pyrimidin-4-yloxymethyl)-2-phenyl-ethylamine] was tested. Which IC50 did it give?
The IC50 was 10 to 40 µM.

How did the IC50 turn out when CN(CCN)c1nc(-c2ccncc2)nc2c1sc1cccc(Cl)c12 [compound 385, N*1*-(9-Chloro-2-pyridin-4-yl-benzo[4,5]thieno[3,2-d]pyrimidin-4-yl)-N*1*- methyl-ethane-1,2-diamine] was run?
The IC50 was 1 to 10 µM.

With c1cnc2sc3c(N4CCNCC4)nc(-c4ccncc4)nc3c2c1 [compound 376, 4-Piperazin-1-yl-2-pyridin-4-yl-pyrido[3′,2′:4,5]thieno[3,2-d]pyrimidine] as the compound, how does the IC50 read?
Its IC50 is 10 to 40 µM.

C[C@H](N)CNc1nc(-c2ccncc2)nc2cc(-c3ccccc3)sc12 [compound 367, (S)-N*1*-(6-Phenyl-2-pyridin-4-yl-thieno[3,2-d]pyrimidin-4-yl)-propane-1,2-diamine] was tested. Which IC50 did it give?
Its IC50 is 10 to 40 µM.

For Cc1csc2c(N3CCCNCC3)nc(-c3ccncc3)nc12 [compound 362, 4-[1,4]Diazepan-1-yl-7-methyl-2-pyridin-4-yl-thieno[3,2-d]pyrimidine], which IC50 is on record?
The IC50 was 0.1 to 1 µM.

How did the IC50 turn out when C[C@@H](N)CNc1nc(-c2ccncc2)nc2cc(-c3ccc(C(C)(C)C)cc3)sc12 [compound 358, (R)-N*1*-[6-(4-tert-Butyl-phenyl)-2-pyridin-4-yl-thieno[3,2-d]pyrimidin-4-yl]-propane-1,2-diamine] was run?
Its IC50 is 10 to 40 µM.

With Clc1cccc2sc3c(N4CCCNCC4)nc(-c4ccncc4)nc3c12 [compound 371, 9-Chloro-4-[1,4]diazepan-1-yl-2-pyridin-4-yl-benzo[4,5]thieno[3,2-d]pyrimidine] as the compound, how does the IC50 read?
The IC50 was 0.1 to 1 µM.

With C[C@@H](N)CNc1nc(-c2ccncc2)nc2c1sc1cccc(Cl)c12 [compound 374, (R)-N*1*-(9-Chloro-2-pyridin-4-yl-benzo[4,5]thieno[3,2-d]pyrimidin-4-yl)-propane-1,2-diamine] as the compound, how does the IC50 read?
Its IC50 is 0.1 to 1 µM.

Which IC50 does the source give for Clc1cccc2sc3c(OC[C@H]4CCCN4)nc(-c4ccncc4)nc3c12 [compound 478, 9-Chloro-2-pyridin-4-yl-4-((R)-1-pyrrolidin-2-ylmethoxy)-benzo[4,5]thieno[3,2-d]pyrimidine] here?
The IC50 was 10 to 40 µM.

Which IC50 does the source give for Cc1csc2c(OC[C@@H](N)Cc3ccccc3)nc(-c3ccncc3)nc12 [compound 481, (S)-1-(7-Methyl-2-pyridin-4-yl-thieno[3,2-d]pyrimidin-4-yloxymethyl)-2-phenyl-ethylamine] here?
Its IC50 is 10 to 40 µM.

same assay, conditions: kinase domain PKCi at 2 μM ATP; read-out: IC50 in IMAP assay against kinase domain PKCi (Activity)

Cc1cccc(C[C@H](N)COc2nc(-c3ccncc3)nc3sc4c(c23)CCCC4)c1 [compound 165, (S)-1-(3-Methyl-benzyl)-2-(2-pyridin-4-yl-5,6,7,8-tetrahydro-benzo[4,5]thieno[2,3-d]pyrimidin-4-yloxy)-ethylamine] was tested. Which IC50 did it give?
Its IC50 is 1 to 10 µM.

With c1cncc(CN2CCN(c3nc(-c4ccncc4)nc4sc5c(c34)CCCC5)CC2)c1 [compound 130, 2-Pyridin-4-yl-4-(4-pyridin-3-ylmethyl-piperazin-1-yl)-5,6,7,8-tetrahydro-benzo[4,5]thieno[2,3-d]pyrimidine] as the compound, how does the IC50 read?
The IC50 was 10 to 40 µM.

Which IC50 does the source give for NCCOc1nc(-c2ccncc2)nc2sc3c(c12)CCCC3 [compound 136] here?
The IC50 was 0.1 to 1 µM.

Which IC50 does the source give for COc1cccc(C[C@H](N)COc2nc(-c3ccncc3)nc3sc4c(c23)CCCC4)c1 [compound 180, (S)-1-(3-Methoxy-benzyl)-2-(2-pyridin-4-yl-5,6,7,8-tetrahydro-benzo[4,5]thieno[2,3-d]pyrimidin-4-yloxy)-ethylamine] here?
The IC50 was 1 to 10 µM.

With C[C@@H]1CN(c2nc(-c3ccncc3)nc3sc4c(c23)CCCC4)C[C@H](C)N1 [compound 9, 4-((3R,5S)-3,5-Dimethyl-piperazin-1-yl)-2-pyridin-4-yl-5,6,7,8-tetrahydro-benzo[4,5]thieno[2,3-d]pyrimidine] as the compound, how does the IC50 read?
Its IC50 is 1 to 10 µM.

Which IC50 does the source give for CCN1CCN(c2nc(-c3ccncc3)nc3sc4c(c23)CCCC4)CC1 [compound 119, 4-(4-Ethyl-piperazin-1-yl)-2-pyridin-4-yl-5,6,7,8-tetrahydro-benzo[4,5]thieno[2,3-d]pyrimidine] here?
The IC50 was 1 to 10 µM.

How did the IC50 turn out when Cc1n[nH]c(C)c1-c1nc(N2CCNCC2)c2c3c(sc2n1)CCCC3 [compound 190, 2-(3,5-Dimethyl-1H-pyrazol-4-yl)-4-piperazin-1-yl-5,6,7,8-tetrahydro-benzo[4,5]thieno[2,3-d]pyrimidine] was run?
Its IC50 is 0.1 to 1 µM.

With c1cc(-c2nc(OC[C@@H]3CCCN3)c3c4c(sc3n2)CCCC4)ccn1 [compound 154, 2-Pyridin-4-yl-4-((S)-1-pyrrolidin-2-ylmethoxy)-5,6,7,8-tetrahydro-benzo[4,5]thieno[2,3-d]pyrimidine] as the compound, how does the IC50 read?
The IC50 was 1 to 10 µM.

Which IC50 does the source give for CC1CCc2c(sc3nc(-c4ccncc4)nc(NC[C@H](C)N)c23)C1 (stereo partly drawn) [compound 22, (S)-N*1*-(7-Methyl-2-pyridin-4-yl-5,6,7,8-tetrahydro-benzo[4,5]thieno[2,3-d]pyrimidin-4-yl)-propane-1,2-diamine] here?
Its IC50 is 1 to 10 µM.

N[C@@H](COc1nc(-c2ccncc2)nc2sc3c(c12)CCCC3)Cc1csc2ccccc12 [compound 176, (R)-1-Benzo[b]thiophen-3-ylmethyl-2-(2-pyridin-4-yl-5,6,7,8-tetrahydro-benzo[4,5]thieno[2,3-d]pyrimidin-4-yloxy)-ethylamine] was tested. Which IC50 did it give?
The IC50 was 10 to 40 µM.

For CC(C)Cc1csc2nc(-c3ccncc3)nc(NC[C@H](C)N)c12 [compound 29, (S)-N*1*-(5-Isobutyl-2-pyridin-4-yl-thieno[2,3-d]pyrimidin-4-yl)-propane-1,2-diamine], which IC50 is on record?
The IC50 was 0.1 to 1 µM.

For Cc1n[nH]c(C)c1-c1nc(NC[C@H](C)N)c2c3c(sc2n1)CCCC3 [compound 192, (S)-N*1*-[2-(3,5-Dimethyl-1H-pyrazol-4-yl)-5,6,7,8-tetrahydro-benzo[4,5]thieno[2,3-d]pyrimidin-4-yl]-propane-1,2-diamine], which IC50 is on record?
Its IC50 is 1 to 10 µM.

With CC(C)C[C@@H](N)CNc1nc(-c2ccncc2)nc2sc3c(c12)CCCC3 [compound 16, (R)-4-Methyl-N*1*-(2-pyridin-4-yl-5,6,7,8-tetrahydro-benzo[4,5]thieno[2,3-d]pyrimidin-4-yl)-pentane-1,2-diamine] as the compound, how does the IC50 read?
Its IC50 is 1 to 10 µM.

c1cc(-c2nc(OC[C@H]3CCCN3)c3c4c(sc3n2)CCCC4)ccn1 [compound 153, 2-Pyridin-4-yl-4-((R)-1-pyrrolidin-2-ylmethoxy)-5,6,7,8-tetrahydro-benzo[4,5]thieno[2,3-d]pyrimidine] was tested. Which IC50 did it give?
Its IC50 is 1 to 10 µM.

Which IC50 does the source give for N[C@@H](COc1nc(-c2ccncc2)nc2sc3c(c12)CCCC3)c1ccccc1 [compound 147, (R)-1-Phenyl-2-(2-pyridin-4-yl-5,6,7,8-tetrahydro-benzo[4,5]thieno[2,3-d]pyrimidin-4-yloxy)-ethylamine] here?
Its IC50 is 10 to 40 µM.

Which IC50 does the source give for CC(C)c1cc2c(NC[C@@H](C)N)nc(-c3ccncc3)nc2s1 [compound 41, (R)-N*1*-(6-Isopropyl-2-pyridin-4-yl-thieno[2,3-d]pyrimidin-4-yl)-propane-1,2-diamine] here?
Its IC50 is 10 to 40 µM.

Which IC50 does the source give for CCc1c(C)sc2nc(-c3ccncc3)nc(NC[C@H](C)N)c12 [compound 31, (S)-N*1*-(5-Ethyl-6-methyl-2-pyridin-4-yl-thieno[2,3-d]pyrimidin-4-yl)-propane-1,2-diamine] here?
Its IC50 is 1 to 10 µM.

How did the IC50 turn out when CC(C)Cc1csc2nc(-c3ccncc3)nc(NCCN)c12 [compound 28, N*1*-(5-Isobutyl-2-pyridin-4-yl-thieno[2,3-d]pyrimidin-4-yl)-ethane-1,2-diamine] was run?
Its IC50 is 0.1 to 1 µM.

How did the IC50 turn out when c1cc(-c2nc(OC[C@@H]3CCCCN3)c3c4c(sc3n2)CCCC4)ccn1 [compound 179, 4-((S)-1-Piperidin-2-ylmethoxy)-2-pyridin-4-yl-5,6,7,8-tetrahydro-benzo[4,5]thieno[2,3-d]pyrimidine] was run?
The IC50 was 10 to 40 µM.

For C[C@@H](N)CNc1nc(-c2ccncc2)nc2sc3c(c12)CCCCCC3 [compound 26, (R)-N*1*-(2-Pyridin-4-yl-5,6,7,8,9, 10-hexahydro-11-thia-1,3-diaza-cycloocta[a]inden-4-yl)-propane-1,2-diamine], which IC50 is on record?
Its IC50 is 1 to 10 µM.

With CCc1cc2c(NC[C@H](C)N)nc(-c3ccncc3)nc2s1 [compound 34, (S)-N*1*-(6-Ethyl-2-pyridin-4-yl-thieno[2,3-d]pyrimidin-4-yl)-propane-1,2-diamine] as the compound, how does the IC50 read?
Its IC50 is 1 to 10 µM.

Which IC50 does the source give for C[C@@H](N)CNc1nc(-c2ccncc2F)nc2sc3c(c12)CCCC3 [compound 100, (R)-N*1*-[2-(3-Fluoro-pyridin-4-yl)-5,6,7,8-tetrahydro-benzo[4,5]thieno[2,3-d]pyrimidin-4-yl]-propane-1,2-diamine] here?
The IC50 was 1 to 10 µM.

Which IC50 does the source give for Cc1ccccc1C[C@H](N)COc1nc(-c2ccncc2)nc2sc3c(c12)CCCC3 [compound 174, (S)-1-(2-Methyl-benzyl)-2-(2-pyridin-4-yl-5,6,7,8-tetrahydro-benzo[4,5]thieno[2,3-d]pyrimidin-4-yloxy)-ethylamine] here?
Its IC50 is 1 to 10 µM.

For Clc1ccc(CN2CCN(c3nc(-c4ccncc4)nc4sc5c(c34)CCCC5)CC2)cc1 [compound 122, 4-[4-(4-Chloro-benzyl)-piperazin-1-yl]-2-pyridin-4-yl-5,6,7,8-tetrahydro-benzo[4,5]thieno[2,3-d]pyrimidine], which IC50 is on record?
The IC50 was 10 to 40 µM.

For CN1CCN(c2nc(-c3ccncc3)nc3sc4c(c23)CCCC4)CC1 [compound 125, 4-(4-Methyl-piperazin-1-yl)-2-pyridin-4-yl-5,6,7,8-tetrahydro-benzo[4,5]thieno[2,3-d]pyrimidine], which IC50 is on record?
The IC50 was 1 to 10 µM.
